Assay results from paper PMC7026418, “The kinase polypharmacology landscape of clinical PARP inhibitors” (Scientific Reports, 2020).
Like-named read-outs stand apart in the source and are kept apart here. Blank lines part the entries; values can stand above or below the molecule they belong to.

Key:
Assay in all cases: biochemical
Parameters in all cases: DiscoveRx KINOMEscan active site-directed competition binding; percent of control kinase bound to immobilised ligand
[1] = molecular target: T1, CDC2L5 (Homo sapiens, UniProt Q14004)
T1 construct: gene CDK13

[2] = molecular target: T2, DCAMKL2 (Homo sapiens, UniProt Q8N568)
T2 construct: gene DCLK2
T2 sequence (Q8N568 1-766): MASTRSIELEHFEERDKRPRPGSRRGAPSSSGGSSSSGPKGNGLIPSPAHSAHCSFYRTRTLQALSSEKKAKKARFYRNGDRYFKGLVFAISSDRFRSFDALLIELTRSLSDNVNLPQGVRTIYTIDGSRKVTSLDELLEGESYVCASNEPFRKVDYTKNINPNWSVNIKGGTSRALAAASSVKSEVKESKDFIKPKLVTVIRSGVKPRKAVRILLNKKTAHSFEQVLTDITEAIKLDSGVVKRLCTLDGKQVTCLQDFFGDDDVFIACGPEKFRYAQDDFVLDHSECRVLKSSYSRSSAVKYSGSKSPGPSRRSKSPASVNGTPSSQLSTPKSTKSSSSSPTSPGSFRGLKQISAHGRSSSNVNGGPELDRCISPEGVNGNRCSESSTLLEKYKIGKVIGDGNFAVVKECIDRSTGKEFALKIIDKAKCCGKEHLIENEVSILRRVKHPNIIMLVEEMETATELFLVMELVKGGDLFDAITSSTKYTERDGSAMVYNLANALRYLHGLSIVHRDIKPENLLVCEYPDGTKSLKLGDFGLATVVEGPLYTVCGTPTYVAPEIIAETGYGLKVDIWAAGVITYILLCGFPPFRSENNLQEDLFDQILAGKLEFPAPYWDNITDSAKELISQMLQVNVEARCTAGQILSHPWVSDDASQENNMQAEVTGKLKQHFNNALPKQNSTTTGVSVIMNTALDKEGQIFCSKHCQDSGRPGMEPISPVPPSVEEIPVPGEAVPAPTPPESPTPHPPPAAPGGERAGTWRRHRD

[3] = molecular target: HCK (Homo sapiens, UniProt P08631)
[4] = molecular target: T3, IKK-beta (Homo sapiens, UniProt O14920)
T3 construct: gene IKBKB
T3 sequence (O14920 1-756): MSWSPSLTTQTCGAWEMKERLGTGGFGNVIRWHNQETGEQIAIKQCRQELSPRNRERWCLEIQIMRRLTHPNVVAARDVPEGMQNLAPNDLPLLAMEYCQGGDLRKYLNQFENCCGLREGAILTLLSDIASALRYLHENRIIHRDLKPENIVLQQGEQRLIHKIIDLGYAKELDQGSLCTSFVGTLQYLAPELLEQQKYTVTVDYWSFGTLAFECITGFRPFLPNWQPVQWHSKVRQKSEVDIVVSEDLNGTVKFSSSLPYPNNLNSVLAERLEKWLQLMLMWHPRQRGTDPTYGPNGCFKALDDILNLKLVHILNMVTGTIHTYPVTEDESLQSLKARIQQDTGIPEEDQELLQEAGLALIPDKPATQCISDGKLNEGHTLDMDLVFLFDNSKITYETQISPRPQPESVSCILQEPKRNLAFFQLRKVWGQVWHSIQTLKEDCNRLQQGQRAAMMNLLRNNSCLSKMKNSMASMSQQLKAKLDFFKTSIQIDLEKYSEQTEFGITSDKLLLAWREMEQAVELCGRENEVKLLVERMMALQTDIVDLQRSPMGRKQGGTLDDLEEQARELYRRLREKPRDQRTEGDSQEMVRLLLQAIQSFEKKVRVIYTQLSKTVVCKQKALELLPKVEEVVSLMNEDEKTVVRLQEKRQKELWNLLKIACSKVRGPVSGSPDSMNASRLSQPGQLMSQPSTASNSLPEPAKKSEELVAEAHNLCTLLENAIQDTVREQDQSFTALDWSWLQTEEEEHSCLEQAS

[5] = molecular target: T4, NDR2 (Homo sapiens, UniProt Q9Y2H1)
T4 construct: gene STK38L

[6] = molecular target: TIE1 (Homo sapiens, UniProt P35590)
[7] = molecular target: T5, TSSK3 (Homo sapiens, UniProt Q96PN8)
T5 sequence (Q96PN8 1-268): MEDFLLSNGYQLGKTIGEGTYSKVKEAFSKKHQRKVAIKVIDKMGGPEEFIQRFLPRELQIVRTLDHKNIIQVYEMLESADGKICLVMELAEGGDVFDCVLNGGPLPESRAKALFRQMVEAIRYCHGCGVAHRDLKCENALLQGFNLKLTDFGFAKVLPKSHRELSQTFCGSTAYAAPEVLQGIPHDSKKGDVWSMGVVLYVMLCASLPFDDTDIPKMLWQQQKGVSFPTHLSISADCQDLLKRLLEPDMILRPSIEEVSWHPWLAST

[8] = molecular target: T6, YANK2 (Homo sapiens, UniProt Q9NY57)
T6 construct: gene STK32B

[9] = read-out: Niraparib (MK-4827) / %Ctrl @ 10000nM
[10] = read-out: Olaparib / %Ctrl @ 10000nM
[11] = read-out: Rucaparib / %Ctrl @ 10000nM, binding competition, % of control
[12] = read-out: Talazoparib (BMN 673) / %Ctrl @ 10000nM

T4 sequence (Q9Y2H1 whole entry): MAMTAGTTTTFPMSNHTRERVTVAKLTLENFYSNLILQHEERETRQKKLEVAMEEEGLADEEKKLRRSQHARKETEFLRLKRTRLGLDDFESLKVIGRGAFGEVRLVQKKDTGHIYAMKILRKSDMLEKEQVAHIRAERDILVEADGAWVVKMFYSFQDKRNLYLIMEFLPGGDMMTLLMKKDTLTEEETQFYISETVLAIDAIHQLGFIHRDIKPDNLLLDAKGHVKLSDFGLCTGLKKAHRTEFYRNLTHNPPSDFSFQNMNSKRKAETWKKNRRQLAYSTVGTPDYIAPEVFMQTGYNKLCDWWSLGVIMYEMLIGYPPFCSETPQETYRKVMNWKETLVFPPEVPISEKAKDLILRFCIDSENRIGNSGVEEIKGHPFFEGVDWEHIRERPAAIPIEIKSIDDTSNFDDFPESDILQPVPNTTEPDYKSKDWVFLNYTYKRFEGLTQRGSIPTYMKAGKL
Chain of HCK (P08631 whole entry): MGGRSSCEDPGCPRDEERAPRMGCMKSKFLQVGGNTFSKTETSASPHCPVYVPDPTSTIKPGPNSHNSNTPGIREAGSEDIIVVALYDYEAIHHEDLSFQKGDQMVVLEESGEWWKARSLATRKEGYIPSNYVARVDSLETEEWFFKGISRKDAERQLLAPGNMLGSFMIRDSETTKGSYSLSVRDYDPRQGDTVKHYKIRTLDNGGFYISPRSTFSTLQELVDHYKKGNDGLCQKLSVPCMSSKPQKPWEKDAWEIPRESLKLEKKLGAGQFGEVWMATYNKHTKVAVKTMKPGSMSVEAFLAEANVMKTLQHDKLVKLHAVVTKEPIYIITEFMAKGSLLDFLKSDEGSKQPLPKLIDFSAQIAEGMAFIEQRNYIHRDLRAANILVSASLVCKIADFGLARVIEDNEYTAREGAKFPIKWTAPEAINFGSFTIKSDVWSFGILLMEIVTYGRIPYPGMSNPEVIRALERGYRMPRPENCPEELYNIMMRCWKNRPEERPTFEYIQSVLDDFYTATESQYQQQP
T6 sequence (Q9NY57 whole entry): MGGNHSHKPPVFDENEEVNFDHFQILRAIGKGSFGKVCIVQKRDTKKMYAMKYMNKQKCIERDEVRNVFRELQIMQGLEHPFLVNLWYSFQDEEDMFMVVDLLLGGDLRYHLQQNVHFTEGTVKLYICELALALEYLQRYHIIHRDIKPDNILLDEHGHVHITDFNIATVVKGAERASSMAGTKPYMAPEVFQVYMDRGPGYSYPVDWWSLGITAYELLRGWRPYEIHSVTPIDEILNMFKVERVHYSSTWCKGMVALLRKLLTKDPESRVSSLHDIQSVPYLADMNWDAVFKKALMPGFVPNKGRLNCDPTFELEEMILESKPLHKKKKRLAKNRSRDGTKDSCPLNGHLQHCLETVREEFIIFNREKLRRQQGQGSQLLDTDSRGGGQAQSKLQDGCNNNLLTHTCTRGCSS
Chain of TIE1 (P35590 whole entry): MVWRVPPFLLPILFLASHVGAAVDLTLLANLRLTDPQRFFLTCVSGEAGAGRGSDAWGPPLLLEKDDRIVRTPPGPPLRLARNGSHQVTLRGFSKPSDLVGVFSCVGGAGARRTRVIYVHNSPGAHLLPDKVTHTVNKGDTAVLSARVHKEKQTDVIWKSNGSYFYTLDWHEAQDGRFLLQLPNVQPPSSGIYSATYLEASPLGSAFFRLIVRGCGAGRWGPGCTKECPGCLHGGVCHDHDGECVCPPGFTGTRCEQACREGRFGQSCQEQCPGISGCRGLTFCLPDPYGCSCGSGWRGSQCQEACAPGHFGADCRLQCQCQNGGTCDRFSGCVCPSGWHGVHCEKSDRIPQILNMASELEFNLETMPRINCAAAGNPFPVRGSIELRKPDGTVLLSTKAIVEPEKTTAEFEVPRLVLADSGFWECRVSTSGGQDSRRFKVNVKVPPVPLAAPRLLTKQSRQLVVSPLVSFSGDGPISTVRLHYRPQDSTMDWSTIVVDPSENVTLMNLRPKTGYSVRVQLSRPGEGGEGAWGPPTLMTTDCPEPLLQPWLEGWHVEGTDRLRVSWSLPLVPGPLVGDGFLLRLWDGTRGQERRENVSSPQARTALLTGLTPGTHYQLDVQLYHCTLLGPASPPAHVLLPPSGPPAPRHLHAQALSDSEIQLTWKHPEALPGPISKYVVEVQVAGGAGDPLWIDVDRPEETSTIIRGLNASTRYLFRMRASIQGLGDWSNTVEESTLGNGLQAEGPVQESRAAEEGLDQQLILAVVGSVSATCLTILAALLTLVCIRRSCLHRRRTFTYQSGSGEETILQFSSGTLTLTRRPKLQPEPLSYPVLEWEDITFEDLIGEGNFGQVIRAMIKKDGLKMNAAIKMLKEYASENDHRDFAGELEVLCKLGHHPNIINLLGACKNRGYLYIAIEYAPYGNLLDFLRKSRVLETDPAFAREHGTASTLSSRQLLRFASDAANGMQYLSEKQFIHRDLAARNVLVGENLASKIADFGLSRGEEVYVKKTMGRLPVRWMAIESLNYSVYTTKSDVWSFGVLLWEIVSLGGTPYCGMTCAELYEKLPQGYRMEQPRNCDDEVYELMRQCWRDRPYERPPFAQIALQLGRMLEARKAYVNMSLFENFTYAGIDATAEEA
T1 sequence (Q14004 whole entry): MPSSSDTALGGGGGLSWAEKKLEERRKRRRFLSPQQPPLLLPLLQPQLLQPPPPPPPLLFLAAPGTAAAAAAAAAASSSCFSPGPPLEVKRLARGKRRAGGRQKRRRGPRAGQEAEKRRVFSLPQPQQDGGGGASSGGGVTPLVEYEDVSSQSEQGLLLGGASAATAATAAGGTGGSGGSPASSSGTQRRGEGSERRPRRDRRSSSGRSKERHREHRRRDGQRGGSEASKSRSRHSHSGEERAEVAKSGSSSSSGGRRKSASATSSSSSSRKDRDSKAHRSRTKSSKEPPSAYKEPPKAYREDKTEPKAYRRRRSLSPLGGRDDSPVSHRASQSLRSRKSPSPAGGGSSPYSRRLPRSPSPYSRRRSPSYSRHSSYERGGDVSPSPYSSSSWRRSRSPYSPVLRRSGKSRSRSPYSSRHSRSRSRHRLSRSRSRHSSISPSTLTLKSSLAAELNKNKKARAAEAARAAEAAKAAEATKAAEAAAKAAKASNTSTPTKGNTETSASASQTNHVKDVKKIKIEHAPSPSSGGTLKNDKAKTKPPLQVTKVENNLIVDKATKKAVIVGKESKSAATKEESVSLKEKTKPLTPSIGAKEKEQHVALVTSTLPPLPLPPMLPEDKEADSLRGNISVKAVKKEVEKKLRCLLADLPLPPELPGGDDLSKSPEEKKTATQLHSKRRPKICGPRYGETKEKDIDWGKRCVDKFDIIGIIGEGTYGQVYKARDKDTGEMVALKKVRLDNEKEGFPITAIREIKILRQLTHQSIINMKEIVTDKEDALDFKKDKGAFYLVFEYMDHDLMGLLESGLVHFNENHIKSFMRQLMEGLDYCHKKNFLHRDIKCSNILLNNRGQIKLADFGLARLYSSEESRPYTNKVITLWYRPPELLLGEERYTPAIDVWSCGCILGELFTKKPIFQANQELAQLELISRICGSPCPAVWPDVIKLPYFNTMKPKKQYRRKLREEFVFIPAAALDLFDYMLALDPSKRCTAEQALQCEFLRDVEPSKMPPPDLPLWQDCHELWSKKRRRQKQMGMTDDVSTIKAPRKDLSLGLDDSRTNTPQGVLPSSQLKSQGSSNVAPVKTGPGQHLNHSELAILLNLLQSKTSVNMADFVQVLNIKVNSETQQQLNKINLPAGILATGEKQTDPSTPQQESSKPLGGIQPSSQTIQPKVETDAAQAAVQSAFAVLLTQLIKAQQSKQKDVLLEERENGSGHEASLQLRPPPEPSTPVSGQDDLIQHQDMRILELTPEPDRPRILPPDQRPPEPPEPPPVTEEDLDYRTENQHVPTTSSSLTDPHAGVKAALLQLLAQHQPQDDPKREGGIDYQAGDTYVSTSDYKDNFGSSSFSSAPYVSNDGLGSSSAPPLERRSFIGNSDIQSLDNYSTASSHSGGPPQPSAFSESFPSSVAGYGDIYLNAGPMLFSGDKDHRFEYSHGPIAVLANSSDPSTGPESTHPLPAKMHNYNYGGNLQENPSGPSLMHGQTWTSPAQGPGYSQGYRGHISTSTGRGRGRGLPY

SMILES: NC(=O)c1cccc2cn(-c3ccc([C@@H]4CCCNC4)cc3)nc12 [Niraparib]
percent of control binding at 10 µM [1, 9]: 100%
percent of control binding at 10 µM [2, 9]: 83%
percent of control binding at 10 µM [3, 9]: 70%
percent of control binding at 10 µM [4, 9]: 100%
percent of control binding at 10 µM [5, 9]: 77%
percent of control binding at 10 µM [6, 9]: 87%
percent of control binding at 10 µM [7, 9]: 91%
percent of control binding at 10 µM [8, 9]: 100%

percent of control binding at 10 µM [1, 10]: 99%
percent of control binding at 10 µM [2, 10]: 100%
percent of control binding at 10 µM [3, 10]: 96%
percent of control binding at 10 µM [4, 10]: 72%
percent of control binding at 10 µM [5, 10]: 97%
percent of control binding at 10 µM [6, 10]: 96%
percent of control binding at 10 µM [7, 10]: 89%
percent of control binding at 10 µM [8, 10]: 94%
SMILES: O=C(c1cc(Cc2n[nH]c(=O)c3ccccc23)ccc1F)N1CCN(C(=O)C2CC2)CC1 [Olaparib]

percent of control binding at 10 µM [1, 11]: 98%
percent of control binding at 10 µM [2, 11]: 87%
percent of control binding at 10 µM [3, 11]: 74%
percent of control binding at 10 µM [4, 11]: 35%
percent of control binding at 10 µM [5, 11]: 86%
percent of control binding at 10 µM [6, 11]: 92%
percent of control binding at 10 µM [7, 11]: 0%
percent of control binding at 10 µM [8, 11]: 100%
SMILES: CNCc1ccc(-c2[nH]c3cc(F)cc4c3c2CCNC4=O)cc1 [Rucaparib]

percent of control binding at 10 µM [1, 12]: 100%
percent of control binding at 10 µM [2, 12]: 100%
percent of control binding at 10 µM [3, 12]: 86%
percent of control binding at 10 µM [4, 12]: 95%
percent of control binding at 10 µM [5, 12]: 83%
percent of control binding at 10 µM [6, 12]: 100%
percent of control binding at 10 µM [7, 12]: 84%
percent of control binding at 10 µM [8, 12]: 91%
SMILES: Cn1ncnc1[C@H]1c2n[nH]c(=O)c3cc(F)cc(c23)N[C@@H]1c1ccc(F)cc1 [Talazoparib]
